US20110144159A1, “ETHER BENZYLIDENE PIPERIDINE ARYL CARBOXAMIDE COMPOUNDS USEFUL AS FAAH INHIBITORS” (Pfizer Inc, priority 2008, published 2011)

Target: T1, Human FAAH (Homo sapiens, UniProt O00519)
T1 construct: made in house
T1 sequence (O00519 32-579 limits assumed): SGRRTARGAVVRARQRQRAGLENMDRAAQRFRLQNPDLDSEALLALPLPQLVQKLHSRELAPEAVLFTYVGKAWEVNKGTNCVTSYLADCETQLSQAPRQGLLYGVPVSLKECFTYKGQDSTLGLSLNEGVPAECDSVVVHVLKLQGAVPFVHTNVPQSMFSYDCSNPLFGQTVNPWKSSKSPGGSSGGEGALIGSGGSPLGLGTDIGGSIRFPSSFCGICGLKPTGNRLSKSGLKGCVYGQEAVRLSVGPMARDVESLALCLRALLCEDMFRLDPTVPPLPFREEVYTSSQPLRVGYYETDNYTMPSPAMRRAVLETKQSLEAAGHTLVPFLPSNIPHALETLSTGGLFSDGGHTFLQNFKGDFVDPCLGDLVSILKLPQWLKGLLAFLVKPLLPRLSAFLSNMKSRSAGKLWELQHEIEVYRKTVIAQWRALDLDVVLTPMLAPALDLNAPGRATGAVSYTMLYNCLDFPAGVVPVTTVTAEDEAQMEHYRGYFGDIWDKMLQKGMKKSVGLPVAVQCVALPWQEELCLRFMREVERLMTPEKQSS
Assay: FAAH assay (glutamate dehydrogenase-coupled, oleamide substrate, absorbance at 340 nm)
Type: biochemical
Conditions: further compounds, read-out: hFAAH_Kinact/Ki—StL
Experimental: A FAAH assay may be carried out in 384-well clear polystyrene plates in a total volume of 50 μl per well. All percents are by volume. To each well was placed the reaction mixture (40 μl) containing 1-4 nM FAAH, 50 mM NaPi, pH 7.4, 3 mM α-ketoglutarate, 0.15 mM NADH, 7.5 U/ml glutamate dehydrogenase, 2 mM ADP, 1 mM EDTA, and 0.1% Triton X-100 (The concentration shown for each component was the final concentration in the assay). To this mixture was added 5 μl of a compound of Examples 1 to 20 at various concentrations prepared in 50% DMSO (or 5 μl 50% DMSO for controls). This was immediately followed by the addition of 5 μl oleamide (500 μM) dissolved in 75% EtOH/25% DMSO and the reaction mixture was mixed for 1.5 min. The final concentrations of DMSO and EtOH in the assay are each 7.5%. The reactions was then incubated at 30° C. and the absorbance at 340 nm was collected over a period of 90 min with readings taken in 30-second intervals using SpectraMax Plus^384 Microplate Spectrophotometer (Molecular Devices, Sunnyvale, Calif.). Human FAAH used in the assay was prepared as described in the patent application WO 2006/067613. The purity of the enzyme used was greater than 98% based on an analysis by SDS-polyacrylamide gel electrophoresis followed by Coomassie Blue staining.
Initial velocity data (V) is obtained from the slopes of the initial progressive curves. They are plotted as a function of substrate concentration and fit to the Michaelis-Menten equation (1) using Prism (GraphPad Software, Inc., San Diego, Calif.) software to obtain Km and Vmax values.
To obtain potencies of irreversible inhibitors, progressive curves consistent with first order inhibition kinetics (two-step irreversible inhibition mechanism) are fit to equation (2) by nonlinear least squares regressions to determine kobs values at each inhibitor concentration, where [P]t is the absorbance at time t, V0 is a constant related to the steady state rate of the uninhibited reaction, and kobs is the first order rate constant for enzyme inactivation. The inhibitor dissociation constant (Ki) and the first order rate
constant of enzyme inactivation at infinite inhibitor concentration (kinact) are then obtained by fitting the kobs vs. [I] curves to equation (3).

| kinact/KI [M⁻¹ s⁻¹] | Compound |
| --- | --- |
| 950 | COc1ccc(NC(=O)N2CCC(=Cc3cccc(OCC4CCCCO4)c3)CC2)cn1 (stereo not shown) [N-(6-methoxypyridin-3-yl)-4-[3-(tetrahydro-2H-pyran-2-ylmethoxy)benzylidene]piperidine-1-carboxamide] |
| 3130 | O=C(Nc1cccnc1)N1CCC(=Cc2cccc(OCC3CCCCO3)c2)CC1 (stereo not shown) [N-pyridin-3-yl-4-[3-(tetrahydro-2H-pyran-2-ylmethoxy)benzylidene]piperidine-1-carboxamide] |

Same assay, conditions: irreversible inhibition potency

| Compound | hFAAH KInact/K [M⁻¹ s⁻¹] |
| --- | --- |
| CCC(CC)Oc1cccc(C=C2CCN(C(=O)Nc3cccnn3)CC2)c1 [Example 27, 4-[3-(1-ethylpropoxy)benzylidene]-N-pyridazin-3-ylpiperidine-1-carboxamide] | 1030 |
| CCC(C)Oc1cccc(C=C2CCN(C(=O)Nc3cccnn3)CC2)c1 (stereo not shown) [Example 21, 4-(3-sec-butoxybenzylidene)-N-pyridazin-3-ylpiperidine-1-carboxamide] | 973 |
| CCCC(C)Oc1cccc(C=C2CCN(C(=O)Nc3cccnc3)CC2)c1 (stereo not shown) [Example 34, 4-[3-(1-methylbutoxy)benzylidene]-N-pyridin-3-ylpiperidine-1-carboxamide] | 1810 |
| O=C(Nc1cccnn1)N1CCC(=Cc2cccc(OCc3ccc(C(F)(F)F)cn3)c2)CC1 [Example 73, N-pyridazin-3-yl-4-(3-{[5-(trifluoromethyl)pyridin-2-yl]methoxy}benzylidene)piperidine-1-carboxamide] | 1470 |
| O=C(Nc1cccnn1)N1CCC(=Cc2cccc(OCCc3ccsc3)c2)CC1 [Example 78, N-pyridazin-3-yl-4-{3-[2-(3-thienyl)ethoxy]benzylidene}piperidine-1-carboxamide] | 35803 |
| Cc1ncsc1CCOc1cccc(C=C2CCN(C(=O)Nc3cccnn3)CC2)c1 [Example 105, 4-{3-[2-(4-methyl-1,3-thiazol-5-yl)ethoxy]benzylidene}-N-pyridazin-3-ylpiperidine-1-carboxamide] | 6410 |
| CC(C)(F)CCOc1cccc(C=C2CCN(C(=O)Nc3cccnn3)CC2)c1 [Example 95, 4-[3-(3-fluoro-3-methylbutoxy)benzylidene]-N-pyridazin-3-ylpiperidine-1-carboxamide] | 3869 |
| CCC(C)Oc1cccc(C=C2CCN(C(=O)Nc3cccnn3)CC2)c1 (stereo not shown) [Example 22, 4-(3-sec-butoxybenzylidene)-N-pyridazin-3-ylpiperidine-1-carboxamide] | 1260 |
| O=C(Nc1cccnn1)N1CCC(=Cc2cccc(OCCc3cccc(F)c3)c2)CC1 [Example 89, 4-{3-[2-(3-fluorophenyl)ethoxy]benzylidene}-N-pyridazin-3-ylpiperidine-1-carboxamide] | 25980 |
| CCC(CC)Oc1cccc(C=C2CCN(C(=O)Nc3cccnn3)CC2)c1 [Example 28, 4-[3-(1-ethylpropoxy)benzylidene]-N-pyridazin-3-ylpiperidine-1-carboxamide] | 303 |
| CC(C)(C)CCOc1cccc(C=C2CCN(C(=O)Nc3cccnn3)CC2)c1 [Example 48, 4-[3-(3,3-dimethylbutoxy)benzylidene]-N-pyridazin-3-ylpiperidine-1-carboxamide] | 2580 |
| 4-{3-[(2-methylpyridin-3-yl)methoxy]benzylidene}-N-pyridazin-3-ylpiperidine-1-carboxamide [Example 59] | 328 |
| O=C(Nc1cccnn1)N1CCC(=Cc2cccc(OCc3cccc(C(F)(F)F)n3)c2)CC1 [Example 71, N-pyridazin-3-yl-4-(3-{[6-(trifluoromethyl)pyridin-2-yl]methoxy}benzylidene)piperidine-1-carboxamide] | 294 |
| Cc1cccc(OCCOc2cccc(C=C3CCN(C(=O)Nc4cccnn4)CC3)c2)c1 [Example 52, 4-{3-[2-(3-methylphenoxy)ethoxy]benzylidene}-N-pyridazin-3-ylpiperidine-1-carboxamide] | 31600 |

Further lines, results first:

| hFAAH KInact/K [M⁻¹ s⁻¹] | Compound |
| --- | --- |
| 738 | O=C(Nc1cccnc1)N1CCC(=Cc2cccc(OC3CCOCC3)c2)CC1 [Example 43, N-pyridin-3-yl-4-[3-(tetrahydro-2H-pyran-4-yloxy)benzylidene]piperidine-1-carboxamide] |
| 11900 | CC(C)OCCOc1cccc(C=C2CCN(C(=O)Nc3cccnn3)CC2)c1 [Example 47, 4-[3-(2-isopropoxyethoxy)benzylidene]-N-pyridazin-3-ylpiperidine-1-carboxamide] |
| 2505 | O=C(Nc1cccnn1)N1CCC(=Cc2cccc(OCC3Cc4ccccc4O3)c2)CC1 (stereo not shown) [Example 100, 4-[3-(2,3-dihydro-1-benzofuran-2-ylmethoxy)benzylidene]-N-pyridazin-3-ylpiperidine-1-carboxamide] |
| 2570 | O=C(Nc1cccnn1)N1CCC(=Cc2cccc(OC3CCCC3)c2)CC1 [Example 13, 4-[3-(cyclopentyloxy)benzylidene]-N-pyridazin-3-ylpiperidine-1-carboxamide] |
| 207 | COc1ccc(CCOc2cccc(C=C3CCN(C(=O)Nc4cccnn4)CC3)c2)cc1 [Example 77, 4-{3-[2-(4-methoxyphenyl)ethoxy]benzylidene}-N-pyridazin-3-ylpiperidine-1-carboxamide] |
| 4050 | O=C(Nc1cccnn1)N1CCC(=Cc2cccc(OCC3CCCCO3)c2)CC1 (stereo not shown) [Example 104, N-pyridazin-3-yl-4-[3-(tetrahydro-2H-pyran-2-ylmethoxy)benzylidene]piperidine-1-carboxamide] |
| 712 | CC1CCCC(Oc2cccc(C=C3CCN(C(=O)Nc4cccnc4)CC3)c2)C1 (stereo not shown) [Example 32, 4-{3-[(3-methylcyclohexyl)oxy]benzylidene}-N-pyridin-3-ylpiperidine-1-carboxamide] |
| 1900 | O=C(Nc1cccnc1)N1CCC(=Cc2cccc(OC3CCCC3)c2)CC1 [Example 11, 4-[3-(cyclopentyloxy)benzylidene]-N-pyridin-3-ylpiperidine-1-carboxamide] |
| 1480 | COc1cccc(C=C2CCN(C(=O)Nc3cccnn3)CC2)c1 [Example 6, 4-(3-methoxybenzylidene)-N-pyridazin-3-ylpiperidine-1-carboxamide] |
| 130 | Cc1noc(C)c1COc1cccc(C=C2CCN(C(=O)Nc3cccnn3)CC2)c1 [Example 65, 4-{3-[(3,5-dimethylisoxazol-4-yl)methoxy]benzylidene}-N-pyridazin-3-ylpiperidine-1-carboxamide] |
| 6267 | O=C(Nc1cccnn1)N1CCC(=Cc2cccc(OCC3CCCC3)c2)CC1 [Example 86, 4-[3-(cyclopentylmethoxy)benzylidene]-N-pyridazin-3-ylpiperidine-1-carboxamide] |
| 939 | C=CC(C)Oc1cccc(C=C2CCN(C(=O)Nc3cccnc3)CC2)c1 (stereo not shown) [Example 25, 4-{3-[(1-methylprop-2-en-1-yl)oxy]benzylidene}-N-pyridin-3-ylpiperidine-1-carboxamide] |
| 116 | Cc1cc(COc2cccc(C=C3CCN(C(=O)Nc4cccnn4)CC3)c2)nn1C [Example 70, 4-{3-[(1,5-dimethyl-1H-pyrazol-3-yl)methoxy]benzylidene}-N-pyridazin-3-ylpiperidine-1-carboxamide] |
| 16300 | O=C(Nc1cccnn1)N1CCC(=Cc2cccc(OCC3CC=CCC3)c2)CC1 (stereo not shown) [Example 57, 4-[3-(cyclohex-3-en-1-ylmethoxy)benzylidene]-N-pyridazin-3-ylpiperidine-1-carboxamide] |
| 1420 | CC(C)C(C)Oc1cccc(C=C2CCN(C(=O)Nc3cccnn3)CC2)c1 (stereo not shown) [Example 61, 4-[3-(1,2-dimethylpropoxy)benzylidene]-N-pyridazin-3-ylpiperidine-1-carboxamide] |
